Data on 1 sequence can be found in article PMC12469269, “Investigating SMR Peptide Interactions with Breast Cancer-Associated Proteins” (International Journal of Molecular Sciences, 2025).

“Also recorded” adds a separate entry of the source.

One data set deals with MDA-MB-231 cells. In words: Tumor exosome secretion, Mortalin scanning peptides (Figure 5B), MDA-MB-231. It is filed as cell-based, human. Conditions: MDA-MB-231 exosome experiment.
The subject of a further data set is Vimentin. In words: SPR competition: SMRwt binding to immobilized Vimentin with Mortalin peptides. Conditions: 20 µM SMRwt + 20 µM Mortalin peptide, 25 °C, HBS-P pH 7.4. The arrangement: species or system Human. On the procedure:
(§1) Both Vimentin and Mortalin were immobilized as ligands. We used 20 µM of SMRwt alone and 20 µM of Mortalin peptides alone, and their mixtures were used as analytes.
(§2) Figure 9 Competitive binding of SMR and Mortalin peptides to Vimentin and Mortalin proteins. Binding of SMRwt to immobilized Vimentin in the presence and absence of (A) Mortalin peptide #56, (B) Mortalin peptide #61, and (C) Mortalin peptide #62. Binding of SMRwt to immobilized Mortalin in the presence and absence of (D) Mortalin peptide #56, (E) Mortalin peptide #61, and (F) Mortalin peptide #62. SMRwt alone, as well as a mixture of His-tagged Mortalin peptides #56, #61, and #62 were injected as analytes to flow over the immobilized ligand surfaces. […] Vimentin and Mortalin proteins were immobilized as ligands on a CM5 sensor chip using standard amine coupling chemistry.
(§3) SPR experiments were conducted using a Biacore T200 instrument (Cytiva, Marlborough, MA, USA). CM5 sensor chips (Cytiva) were used to immobilize proteins and run subsequent binding assays at 25 °C. To investigate the direct binding of Nef and SMR peptides to Vimentin and Mortalin and SMR competition studies, both proteins were immobilized as ligands on the active flow cells (FCs) using standard amine coupling chemistry. […] Sensorgrams recorded for kinetics analyses were fitted to a 1:1 binding model using the Biacore T200 evaluation software version 3.2.1. […]

Data set [1] concerns exNef-GFP secretion in MDA-MB-231, MCF-7, BT474 BC cells and Jurkat T cells. The data set can be described thus: Nef-driven exNef-GFP secretion (Figure 3), three BC cell lines and Jurkat T cells. It is filed as cell-based, human. As to the method: Figure 3 Effects of Mortalin-derived peptides on viral Nef-driven exNef secretion. (A) MDA-MB-231, (B) MCF-7, (C) BT474 BC cells, and (D) Jurkat T cells were co-transfected with 1 µg of wild-type Nef-GFP clone and 200 ng of various Mortalin-scanning peptides. The cells were then placed in a 24-well plate and incubated at 37 °C for 24 h before being assayed for extracellular vesicle secretion. Cells were also co-transfected with SMRwt or SMRmut peptides as positive and negative controls, respectively. The amount of GFP fluorescence measured was equivalent to the amount of exNef-GFP in the extracellular media. […] The bar graphs display relative levels of exosome release. In here, asterisks (* p < 0.05, ** p < 0.005, *** p < 0.0005, and **** p < 0.00005) are used to indicate levels of statistical significance. The more asterisks, the stronger the statistical significance. Data represents the mean ± SD from three independent experiments.
Co-transfections of cells with peptides were carried out using Lipofectamine Reagent (Fisher Scientific), following the manufacturer’s protocol. One day prior to transfection, cells were trypsinized and plated at a density of 6.25 × 10^5 cells per well in 2 mL of complete growth medium. […] The cell transfection efficiency was calculated by counting the green, fluorescent cells using a fluorescence microscope.

The test system of a further data set is Mortalin. In words: SPR competition: SMRwt binding to immobilized Mortalin with Mortalin peptides. The arrangement: species or system Human. Conditions: 20 µM SMRwt + 20 µM Mortalin peptide, 25 °C, HBS-P pH 7.4. On the procedure: as §1, §2, §3

Regarding “DQLPADECNKLKEEISKMRE [#61, Mortalin scanning peptide 61]”, the cluster formation entry in the data set with MDA-MB-231 cells is “formed small clusters”. Besides, the “inhibition of SMRwt–Vimentin binding, in words” value in the data set with Vimentin (listed as Mortalin #61) is “effectively compete with SMRwt to block its interaction with the Mortalin or Vimentin protein”; in the data set with Vimentin (listed as Mortalin peptide #61), “inhibited SMRwt binding to both Mortalin and Vimentin; also recorded: completely blocks the 20 µM SMRwt from binding to both Vimentin and Mortalin; also recorded: completely inhibited complex formation between SMRwt and Vimentin”. In addition, the “effect on Nef function (exNef-GFP secretion), in words” value in data set [1] (1 µg Nef-GFP + 200 ng peptide, co-transfected, 37 °C, 24 h, GFP fluorescence, three independent experiments) is reported as “significant reduction in exNef-GFP secretion; also recorded: inhibit Nef function”. Besides, the “interaction with NefSMR domain / Nef / SMRwt peptide, in words” value in data set [1] (inferred from exNef secretion (Figures 2 and 3)) was “bind HIV-1 Nef and the SMRwt peptide; also recorded: can interact with the NefSMR domain; also recorded: bound the SMR domain and effectively inhibited Nef activity”. The “inhibition of SMRwt–Mortalin binding, in words” value with Mortalin (listed as Mortalin #61) is “effectively compete with SMRwt to block its interaction with the Mortalin or Vimentin protein”; in the data set on Mortalin (listed as Mortalin peptide #61), “inhibited SMRwt binding to both Mortalin and Vimentin; also recorded: completely blocks the 20 µM SMRwt from binding to both Vimentin and Mortalin; also recorded: complete inhibition”.
